Reference: ChEMBL document CHEMBL4295262, “Evaluation of the utility of stem-cell derived cardiomyocytes for drug proarrhythmic potential” (2019)
Blank lines part the entries; values can stand above or below the molecule they belong to.

Assays:
[1] = (§1) Electrical activity assay on cell lines treated with a given drug. DMSO was used as a vehicle and a control, unblinded dofetilide was used as a control.; conditions: human, ipsc-cm
[2] = as §1; assay type: ADME, cell-based; conditions: human, ipsc-cm
[3] = as §1; assay type: ADME, cell-based; design: FPDc: unit not given here; conditions: human, ipsc-cm
[4] = as §1; conditions: human, ipsc-cm, 1 µM
[5] = as §1; assay type: ADME, cell-based; design: FPDc: unit not given here; conditions: human, ipsc-cm; remark: listed apart in the source
[6] = as §1; assay type: ADME, cell-based; conditions: human, ipsc-cm, 0.01 µM; concentration (um) 0.01 uM
[7] = as §1; conditions: human, ipsc-cm; remark: listed apart in the source
[8] = 0.001 µM, concentration (um) 0.001 uM
[9] = 0.01 µM, concentration (um) 0.01 uM
[10] = 0.003169 µM, concentration (um) 0.00316912 uM
[11] = 0.01001 µM, concentration (um) 0.0100144 uM
[12] = 0.03165 µM, concentration (um) 0.0316456 uM
[13] = 0.1 µM, concentration (um) 0.1 uM

- FPD measurement ([1]; 0.001 µM): 55.35 FPDc
- FPDc ([1]; 0.001 µM): 55.35
- FPD measurement [2, 8]: 49.93 FPDc
- FPDc [3, 9]: 50.28
- FPDc [4]: 70.37
- FPDc [5, 8]: 0.03393
- FPDc [6]: 20.63
SMILES: C[S+](C)[O-] [DIMETHYL SULFOXIDE]
- FPDc [2, 8]: 72 Values Out Of 72 Were Excluded Due To Quiescence Or 0 Fpdc
- FPD measurement [6]: 25 Values Out Of 25 Were Excluded Due To Quiescence Or 0 Apdc

- FPD measurement ([1]; 0.0009507 µM): 54.17 FPDc
- FPDc ([1]; 0.0009507 µM): 54.17
- FPD measurement ([1]; 0.003004 µM): 54.08 FPDc
- FPDc ([1]; 0.003004 µM): 54.08
- FPD measurement ([1]; 0.009494 µM): 55.38 FPDc
- FPDc ([1]; 0.009494 µM): 55.38
- FPD measurement ([1]; 0.03 µM): 55.57 FPDc
- FPDc ([1]; 0.03 µM): 55.57
- FPDc ([5]; 0.0009507 µM, concentration (um) 0.000950736 uM): 0.02441
- FPDc ([5]; 0.003004 µM, concentration (um) 0.00300433 uM): 0.02167
- FPDc ([5]; 0.009494 µM, concentration (um) 0.00949367 uM): 0.02089
- FPDc ([5]; 0.03 µM, concentration (um) 0.03 uM): 0.02123
SMILES: CCOC(=O)N1CCC(=C2c3ccc(Cl)cc3CCc3cccnc32)CC1 [LORATADINE]
- FPD measurement ([7]; 0.0009507 µM): 1 Values Out Of 1 Were Excluded Due To Quiescence Or 0 Fpdc
- FPDc ([7]; 0.0009507 µM): 1 Values Out Of 1 Were Excluded Due To Quiescence Or 0 Fpdc
- FPD measurement ([7]; 0.003004 µM): 1 Values Out Of 1 Were Excluded Due To Quiescence Or 0 Fpdc
- FPDc ([7]; 0.003004 µM): 1 Values Out Of 1 Were Excluded Due To Quiescence Or 0 Fpdc
- FPD measurement ([7]; 0.009494 µM): 1 Values Out Of 1 Were Excluded Due To Quiescence Or 0 Fpdc
- FPDc ([7]; 0.009494 µM): 1 Values Out Of 1 Were Excluded Due To Quiescence Or 0 Fpdc
- FPD measurement ([7]; 0.03 µM): 1 Values Out Of 1 Were Excluded Due To Quiescence Or 0 Fpdc
- FPDc ([7]; 0.03 µM): 1 Values Out Of 1 Were Excluded Due To Quiescence Or 0 Fpdc

SMILES: Cc1nc2n(c(=O)c1CCN1CCC(c3noc4cc(F)ccc34)CC1)CCCC2 [RISPERIDONE]
- FPD measurement ([1]; 0.003169 µM): 55.22 FPDc
- FPDc ([1]; 0.003169 µM): 55.22
- FPD measurement ([1]; 0.01001 µM): 55.61 FPDc
- FPDc ([1]; 0.01001 µM): 55.61
- FPD measurement ([1]; 0.03165 µM): 57.01 FPDc
- FPDc ([1]; 0.03165 µM): 57.01
- FPD measurement ([1]; 0.1 µM): 65.06 FPDc
- FPDc ([1]; 0.1 µM): 65.06
- FPD measurement ([7]; 0.003169 µM): 1 Values Out Of 1 Were Excluded Due To Quiescence Or 0 Fpdc
- FPDc ([7]; 0.003169 µM): 1 Values Out Of 1 Were Excluded Due To Quiescence Or 0 Fpdc
- FPD measurement ([7]; 0.01001 µM): 1 Values Out Of 1 Were Excluded Due To Quiescence Or 0 Fpdc
- FPDc ([7]; 0.01001 µM): 1 Values Out Of 1 Were Excluded Due To Quiescence Or 0 Fpdc
- FPD measurement ([7]; 0.03165 µM): 1 Values Out Of 1 Were Excluded Due To Quiescence Or 0 Fpdc
- FPDc ([7]; 0.03165 µM): 1 Values Out Of 1 Were Excluded Due To Quiescence Or 0 Fpdc
- FPD measurement ([7]; 0.1 µM): 1 Values Out Of 1 Were Excluded Due To Quiescence Or 0 Fpdc
- FPDc ([7]; 0.1 µM): 1 Values Out Of 1 Were Excluded Due To Quiescence Or 0 Fpdc
- FPD measurement [3, 10]: 5 Values Out Of 5 Were Excluded Due To Quiescence Or 0 Apdc
- FPDc [3, 10]: 54.79
- FPD measurement [3, 11]: 5 Values Out Of 5 Were Excluded Due To Quiescence Or 0 Apdc
- FPDc [3, 11]: 49.58
- FPD measurement [3, 12]: 5 Values Out Of 5 Were Excluded Due To Quiescence Or 0 Apdc
- FPDc [3, 12]: 47.1
- FPD measurement [3, 13]: 5 Values Out Of 5 Were Excluded Due To Quiescence Or 0 Apdc
- FPDc [3, 13]: 61.9
- FPDc [5, 10]: 0.03911
- FPDc [5, 11]: 0.03923
- FPDc [5, 12]: 0.03847
- FPDc [5, 13]: 0.03663

- FPD measurement [2, 8]: 52.61 FPDc
- FPD measurement [2, 9]: 58.45 FPDc
- FPDc [3, 8]: 48.96
- FPDc [3, 9]: 54.23
- FPDc [3, 13]: 56.48
- FPDc ([3]; 1 µM, concentration (um) 1 uM): 50.52
- FPDc [5, 8]: 0.02679
- FPDc [5, 9]: 0.03865
SMILES: COc1ccc(CCN(C)CCCC(C#N)(c2ccc(OC)c(OC)c2)C(C)C)cc1OC (stereo not given) [VERAPAMIL]
- FPDc [2, 8]: 6 Values Out Of 6 Were Excluded Due To Quiescence Or 0 Fpdc
- FPDc [2, 9]: 6 Values Out Of 6 Were Excluded Due To Quiescence Or 0 Fpdc
- FPDc [2, 13]: 6 Values Out Of 6 Were Excluded Due To Quiescence Or 0 Fpdc
- FPDc ([2]; 1 µM, concentration (um) 1 uM): 6 Values Out Of 6 Were Excluded Due To Quiescence Or 0 Fpdc
- FPD measurement ([7]; 0.001 µM): 1 Values Out Of 1 Were Excluded Due To Quiescence Or 0 Fpdc
- FPDc ([7]; 0.001 µM): 1 Values Out Of 1 Were Excluded Due To Quiescence Or 0 Fpdc
- FPD measurement ([7]; 0.01 µM): 1 Values Out Of 1 Were Excluded Due To Quiescence Or 0 Fpdc
- FPDc ([7]; 0.01 µM): 1 Values Out Of 1 Were Excluded Due To Quiescence Or 0 Fpdc
- FPD measurement ([7]; 0.1 µM): 1 Values Out Of 1 Were Excluded Due To Quiescence Or 0 Fpdc
- FPDc ([7]; 0.1 µM): 1 Values Out Of 1 Were Excluded Due To Quiescence Or 0 Fpdc
- FPD measurement ([7]; 1 µM): 1 Values Out Of 1 Were Excluded Due To Quiescence Or 0 Fpdc
- FPDc ([7]; 1 µM): 1 Values Out Of 1 Were Excluded Due To Quiescence Or 0 Fpdc
- FPD measurement [3, 8]: 5 Values Out Of 5 Were Excluded Due To Quiescence Or 0 Apdc
- FPD measurement [3, 9]: 5 Values Out Of 5 Were Excluded Due To Quiescence Or 0 Apdc
- FPD measurement [3, 13]: 5 Values Out Of 5 Were Excluded Due To Quiescence Or 0 Apdc
- FPD measurement ([3]; 1 µM, concentration (um) 1 uM): 5 Values Out Of 5 Were Excluded Due To Quiescence Or 0 Apdc
- FPD measurement [5, 13]: More Than Half The Wells Had A Quiescence Event Or Fpdc Readings Of 0
- FPDc [5, 13]: More Than Half The Wells Had A Quiescence Event Or Fpdc Readings Of 0
- FPD measurement ([5]; 1 µM, concentration (um) 1 uM): More Than Half The Wells Had A Quiescence Event Or Fpdc Readings Of 0
- FPDc ([5]; 1 µM, concentration (um) 1 uM): More Than Half The Wells Had A Quiescence Event Or Fpdc Readings Of 0
